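These data come from cells grown in 96-well plates and exposed to compound for 48 hours at five concentrations. GI50 marks 50% less growth.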 Active and inactive are the calls of the source. Cut-off read from the data, not from the text of the source: active = GI50 up to about 1.1 µM and inactive = higher.
Assays:
Assay in all cases: growth of human tumour cells (NCI), 48 h
[1] = test system: KM12
[2] = test system: MDA-MB-435
[3] = test system: UACC-257
[4] = test system: A498
[5] = test system: SW-620
[6] = test system: SK-OV-3
[7] = test system: HL-60
[8] = test system: SK-MEL-2
[9] = test system: PC-3
[10] = test system: A549
[11] = test system: NCI-H522
[12] = test system: BT-549
[13] = test system: UACC-62
[14] = test system: HOP-62
[15] = test system: Malme-3M
[16] = test system: SK-MEL-5
[17] = test system: SNB-75
[18] = test system: SF-268
[19] = test system: NCI-H23
[20] = test system: MCF7
[21] = test system: EKVX
[22] = test system: K562
[23] = test system: HCC 2998
[24] = test system: M14
[25] = test system: ACHN
[26] = test system: HCT-116
[27] = test system: OVCAR-5
[28] = test system: IGROV-1
[29] = test system: MDA-N
[30] = test system: HOP-92
[31] = test system: SK-MEL-28
[32] = test system: OVCAR-3
[33] = test system: 786-0
[34] = test system: CAKI-1
[35] = test system: T47D
[36] = test system: HCT-15
[37] = test system: SN12C
[38] = test system: OVCAR-4
[39] = test system: COLO 205
[40] = test system: SF-295
[41] = test system: RPMI-8226
[42] = test system: MDA-MB-231
[43] = test system: NCI/ADR-RES
[44] = test system: MOLT-4
[45] = test system: HT-29
[46] = test system: UO-31
[47] = test system: SR
[48] = test system: DU-145
[49] = test system: TK-10
[50] = test system: Hs-578T
[51] = test system: LOX IMVI
[52] = test system: U-251
[53] = test system: OVCAR-8
[54] = test system: RXF 393
[55] = test system: NCI-H226
[56] = test system: CCRF-CEM
[57] = test system: NCI-H460
[58] = test system: SNB-19
[59] = test system: SF-539

Measured: GI50

N=C(N)Nc1ccc(CC(N)NCC(=O)O)cc1 (centres undefined)
> 25 µM: [36]
inactive: [1] > 25 µM | [2] > 25 µM | [3] > 25 µM | [4] > 25 µM | [5] > 25 µM | [6] > 25 µM | [7] > 25 µM | [8] > 25 µM | [9] > 25 µM | [10] > 25 µM | [11] > 25 µM | [12] > 25 µM | [13] > 25 µM | [14] > 25 µM | [15] > 25 µM | [16] > 25 µM | [17] > 25 µM | [18] > 25 µM | [19] > 25 µM | [20] > 25 µM | [21] > 25 µM | [22] > 25 µM | [23] > 25 µM | [24] > 25 µM | [25] > 25 µM | [26] > 25 µM | [27] > 25 µM | [28] > 25 µM | [29] > 25 µM | [30] > 25 µM | [31] > 25 µM | [32] > 25 µM | [33] > 25 µM | [34] > 25 µM | [35] > 25 µM | [37] > 25 µM | [38] > 25 µM | [39] > 25 µM | [40] > 25 µM | [41] > 25 µM | [42] > 25 µM | [43] > 25 µM | [44] > 25 µM | [45] > 25 µM | [46] > 25 µM | [47] 20 µM | [48] > 25 µM | [49] > 25 µM | [50] > 25 µM | [51] > 25 µM | [52] > 25 µM | [53] > 25 µM | [54] > 25 µM | [55] > 25 µM | [56] > 25 µM

COC(=O)/C=C/c1ccc2c(c1)CC1(C2)Cc2cc3c(cc2C1=O)CCC3 (centres undefined)
inactive: [1] 56.8 µM | [2] > 100 µM | [3] > 100 µM | [4] > 100 µM | [5] > 100 µM | [7] 7.98 µM | [8] > 100 µM | [9] 88.9 µM | [10] 40.3 µM | [11] 31.1 µM | [12] > 100 µM | [13] > 100 µM | [57] 80.9 µM | [58] 31.6 µM | [15] 42 µM | [16] 74.8 µM | [17] 24.9 µM | [18] 46.2 µM | [20] > 100 µM | [21] 55.6 µM | [22] > 100 µM | [23] > 100 µM | [24] 47 µM | [25] 39.5 µM | [59] 31 µM | [26] 15.7 µM | [28] 24.3 µM | [29] > 100 µM | [30] 35.3 µM | [31] > 100 µM | [32] 4.63 µM | [33] 27 µM | [34] 36.2 µM | [35] 11.1 µM | [37] > 100 µM | [38] 43.2 µM | [39] > 100 µM | [40] 34.1 µM | [41] 15 µM | [42] 39 µM | [43] 42.5 µM | [44] > 100 µM | [46] 50.8 µM | [47] 44.1 µM | [48] > 100 µM | [49] 57.3 µM | [50] 25.2 µM | [51] > 100 µM | [52] 26.5 µM | [53] 25.1 µM | [54] 24.5 µM | [55] 49.3 µM | [56] > 100 µM
> 100 µM: [36]

OCC1OC(O)C(/N=C\c2ccc3c(c2)OCO3)C(O)C1O (centres undefined)
> 100 µM: [36]
inactive: [1] > 100 µM | [2] > 100 µM | [3] > 100 µM | [4] > 100 µM | [5] > 100 µM | [6] > 100 µM | [7] > 100 µM | [8] > 100 µM | [9] > 100 µM | [10] > 100 µM | [11] > 100 µM | [12] > 100 µM | [13] > 100 µM | [57] > 100 µM | [58] > 100 µM | [14] > 100 µM | [15] > 100 µM | [16] > 100 µM | [17] > 100 µM | [18] > 100 µM | [19] > 100 µM | [20] > 100 µM | [21] > 65.3 µM | [23] > 100 µM | [24] > 100 µM | [25] > 100 µM | [59] > 100 µM | [26] > 100 µM | [27] > 100 µM | [28] > 100 µM | [29] > 100 µM | [30] > 100 µM | [31] > 100 µM | [32] > 100 µM | [33] > 100 µM | [34] > 100 µM | [35] > 100 µM | [38] > 100 µM | [39] > 100 µM | [40] > 100 µM | [41] > 100 µM | [42] > 100 µM | [43] > 100 µM | [44] > 100 µM | [45] > 100 µM | [46] > 100 µM | [47] > 100 µM | [48] > 100 µM | [49] > 100 µM | [50] > 100 µM | [51] > 100 µM | [52] > 100 µM | [53] > 100 µM | [54] > 100 µM | [55] > 100 µM

N#CC1=C(N)C(C#N)(C#N)C(c2ccc(F)cc2)C=C1C1CC1 (centres undefined)
9.77 µM: [36]
active: [59] 0.597 µM
inactive: [1] 4.14 µM | [2] 3.22 µM | [3] 9.12 µM | [4] 11.4 µM | [5] 6.95 µM | [6] 8.93 µM | [7] 4.13 µM | [8] 6.52 µM | [9] 10.2 µM | [10] 13.8 µM | [11] 3.78 µM | [12] 3.2 µM | [13] 8.24 µM | [57] 5.2 µM | [58] 13.2 µM | [14] 13.1 µM | [15] 11.5 µM | [16] 4.46 µM | [17] 6 µM | [18] 4.81 µM | [19] 4.22 µM | [20] 5.09 µM | [21] 17.6 µM | [22] 6.03 µM | [23] 12.8 µM | [24] 4.21 µM | [25] 12.9 µM | [26] 4.01 µM | [27] 12.6 µM | [28] 12.9 µM | [29] 2.27 µM | [30] 11.9 µM | [31] 12.4 µM | [32] 5.27 µM | [33] 9.84 µM | [34] 15 µM | [35] 12.1 µM | [37] 2.72 µM | [39] 12.4 µM | [40] 11.2 µM | [41] 7.05 µM | [42] 16.5 µM | [43] 14.5 µM | [44] 4.81 µM | [45] 6.12 µM | [46] 14 µM | [47] 3.27 µM | [48] 12.9 µM | [49] 15.5 µM | [50] 16.5 µM | [51] 3.94 µM | [52] 5.68 µM | [53] 9.93 µM | [54] 5.96 µM | [56] 4.71 µM

O=c1[nH]nc(Cc2ccccc2)n1/N=C/c1cccnc1
> 100 µM: [36]
inactive: [1] 27.3 µM | [2] > 100 µM | [3] > 100 µM | [4] > 100 µM | [5] > 100 µM | [7] > 100 µM | [9] > 100 µM | [10] > 100 µM | [11] > 100 µM | [12] 25 µM | [57] > 100 µM | [58] > 100 µM | [14] > 100 µM | [15] > 100 µM | [16] > 100 µM | [17] > 100 µM | [18] > 100 µM | [19] > 100 µM | [20] > 100 µM | [21] > 100 µM | [22] > 100 µM | [23] > 100 µM | [24] > 100 µM | [25] > 100 µM | [59] > 100 µM | [26] > 100 µM | [27] > 100 µM | [28] > 100 µM | [29] > 100 µM | [30] > 100 µM | [31] > 100 µM | [32] > 100 µM | [33] > 100 µM | [34] 12.4 µM | [35] > 100 µM | [37] > 100 µM | [38] > 100 µM | [39] > 100 µM | [40] > 100 µM | [41] > 100 µM | [42] > 100 µM | [43] > 100 µM | [44] > 100 µM | [45] > 100 µM | [46] 71.6 µM | [47] > 100 µM | [48] > 100 µM | [49] > 100 µM | [50] > 100 µM | [51] > 100 µM | [52] > 100 µM | [53] > 100 µM | [54] > 100 µM | [55] > 100 µM | [56] > 100 µM
